A short description of data set [1]: Stability in simulated gastric fluid (SGF). As to conditions: simulated gastric fluid (SGF) with pepsin, pH 1.3, 15 μL of 1 mM peptide stock in 285 μL SGF, 37 °C, samples 0 min-24 h quenched with 0.2 M Na2CO3, RP-HPLC/LC-MS peak area as % of time 0, exponential one-phase decay fit, read-out: t1/2 in SGF. Format: in vitro ADME, porcine. Summed up: (§1)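 Peptides incubated at 37 °C in SGF (pepsin, pH 1.3) or SIF (porcine pancreatin, pH 6.8), sampled from 0 min to 24 h. Remaining peptide quantified by RP-HPLC peak area as % of time 0, with t1/2 from one-phase exponential decay fit. Metabolites identified by LC-MS.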

For the next data set, the system named is SH-SY5Y cells. Put plainly: Antiapoptotic assay (etoposide-induced cell death, caspase-3/7 activity). Particulars: etoposide 10 μM and peptide 10 μM added at the same time, caspase-3/7 activity after 6 h, n ≥ 3 independent experiments. Format: cell-based, human.
A short description of data set [2]: Stability in simulated intestinal fluid (SIF). Format: in vitro ADME. Particulars: pig, simulated intestinal fluid (SIF) with porcine pancreatin, pH 6.8, 15 μL of 1 mM peptide stock in 285 μL SIF, 37 °C, samples 0 min-24 h quenched with 5% aqueous TFA, RP-HPLC/LC-MS peak area as % of time 0, exponential one-phase decay fit, read-out: t1/2 in SIF. Summed up:
as §1

Procedure for SH-SY5Y cells: (A) Cell death was induced with etoposide (10 μM), and cells were treated with 10 μM of TFF3. Etoposide and TFF3 were added at the same time. Caspase-3/7 activity was measured after 6 h. […] Z-DEVD-FMK (50 μM; caspase-3 inhibitor) was used as the positive control. E: etoposide, E + C3I: etoposide + caspase-3 inhibitor. One-way analysis of variance (ANOVA) followed by Dunnett correction was performed to assess differences between treated cells and etoposide only. *p < 0.05, **p < 0.01.
SH-SY5Y cells were seeded (13–15 × 10^3 cells/well) in 96-well microplates in DMEM with 10% (v/v) fetal calf serum (FCS; Gibco), 2 mM L-glutamine, and 100 units/mL penicillin/streptomycin. The media was replaced with low riboflavin, complete Ham’s F12 medium with 10% (v/v) fetal calf serum, 2 mM L-glutamine, and 100 units/mL penicillin/streptomycin before the live-cell imaging. Cells were treated with the etoposide or the caspase-3 inhibitor or TFF3(C^57Acm) or TFF3 homodimer in the presence of IncuCyte caspase-3/7 green apoptosis reagent. Data were acquired using an IncuCyte ZOOM instrument with standard scan type setting (4 images per well) every 2 h for 48 h.

On to `CC[C@H](C)[C@@H]1NC(=O)[C@H](CCCNC(=N)N)NC(=O)[C@H](CO)NC(=O)[C@H](CC(=O)O)NC(=O)[C@H](Cc2ccccc2)NC(=O)[C@@H]2CSSC[C@H](NC(=O)[C@H](CCC(N)=O)NC(=O)[C@H](CC(N)=O)NC(=O)[C@H](C)NC(=O)[C@H](CO)NC(=O)[C@H](CC(C)C)NC(=O)CNC(=O)[C@@H](NC(=O)[C@H](Cc3ccc(O)cc3)NC(=O)[C@H](CCC(=O)O)NC(=O)[C@@H](N)CCC(=O)O)C(C)C)C(=O)N[C@@H](C)C(=O)N[C@@H](C(C)C)C(=O)N3CCC[C@H]3C(=O)N[C@@H](C)C(=O)N[C@@H](CCCCN)C(=O)N[C@@H](CC(=O)O)C(=O)N[C@@H](CCCNC(=N)N)C(=O)N[C@@H](C(C)C)C(=O)N[C@@H](CC(=O)O)C(=O)N[C@H]3CSSC[C@H](NC(=O)CNC(=O)[C@H](CCCNC(=N)N)NC(=O)[C@H](CC(N)=O)NC(=O)[C@H](CC(N)=O)NC(=O)[C@H](CSSC[C@@H](C(=O)N[C@@H](Cc4ccccc4)C(=O)N[C@@H](CCCCN)C(=O)N4CCC[C@H]4C(=O)N[C@@H](CC(C)C)C(=O)N[C@@H](CCC(N)=O)C(=O)N[C@@H](CCC(=O)O)C(=O)N[C@@H](C)C(=O)N[C@@H](CCC(=O)O)C(=O)N[C@@H](CSCNC(C)=O)C(=O)N[C@H](C(=O)N[C@@H](Cc4ccccc4)C(=O)O)[C@@H](C)O)NC(=O)[C@H](Cc4c[nH]c5ccccc45)NC(=O)[C@@H]4CCCN4C(=O)[C@H](C(C)C)NC(=O)CNC(=O)[C@@H]4CCCN4C1=O)NC(=O)[C@H](CCC(=O)O)NC(=O)[C@H](CCCCN)NC(=O)[C@@H]1CCCN1C(=O)[C@H]([C@@H](C)O)NC(=O)[C@H](C(C)C)NC(=O)[C@H](Cc1c[nH]cn1)NC(=O)[C@@H]1CCCN1C(=O)[C@H](Cc1ccc(O)cc1)NC(=O)CNC3=O)C(=O)N2` [TFF3(C^57Acm)], for which the half-life at 50 μM in data set [1] and in data set [2] was < 5 min in each case. Besides, the “reduction of etoposide-induced cell death (caspase-3/7 active objects)” value with SH-SY5Y cells was “statistically significant (p < 0.05) reduction in cell death”.

The values are drawn from paper PMC8273887 (Journal of Medicinal Chemistry, 2021).
